For data set [1], the system named is Klebsiella pneumoni (ATCC 4352) and Staphylococcus aureus (ATCC 6538). Kind of data set: inhibiting zone test on agar plates. The conditions noted are these: various concentrations on 6-mm filter disks, approximately 16 hours of incubation on agar plates, FIG. 1. The data set is classed as cell-based. The method, then: For purposes of determining the concentration by means of the inhibiting zone tests, Klebsiella pneumoni (ATCC 4352) and Staphylococcus aureus (ATCC 6538) were bred on casein soy-meal broth (CM, oxoid), then plated out onto casein-peptone soy-meal agar (CM 131, oxoid) and incubated at 37° C. [98.6° F.]. Up to 50 μl of Irgasan DP 300 were applied onto 6-mm filter disks.
For this purpose, first of all, a test was drawn up that makes it possible to quantitatively detect the anti-microbial effect of test specimens containing 0.2% Irgasan DP 300 and Irgasan DP 300 as a pure substance. In order to examine the migration of the additive and the sensitivity of various test germs, an inhibiting zone test was conducted: test specimens were incubated on agar plates that had been inoculated with these germs. As indicators, two microorganisms were employed whose minimum inhibiting concentration (MIC) with respect to Irgasan DP 300 was between 0.01 ppm and 0.3 ppm, according to information provided by the manufacturer. The kinetics of the release of active ingredient into an aqueous solution were examined by incubating test specimens in a defined volume and by subsequently evaluating them with a spectroscope as well as in the inhibiting zone test. Both methods were calibrated by means of parallel batches with the pure substance. […]

The nature of data set [2]: saturation concentration in water. In kind it is physicochemical. The conditions noted are these: room temperature.
For data set [3] the following is noted: in vivo; cited from earlier work.

The structures appear in SMILES notation.

In the case of `Oc1cc(Cl)ccc1Oc1ccc(Cl)cc1Cl` [Irgasan DP 300, 2,4,4′-trichloro-2′-hydroxydiphenyl ether], the “microbial growth in inhibiting zones” value in data set [1] is “do not exhibit any microbial growth”. Also, the “saturation concentration in water” value in data set [2] was “about 10 ppm”. In data set [3], the “accumulation in the body” value was “does not accumulate in the body” and the “toxicity in view of LD50 value” is reported as “practically non-toxic”.

Source of the values: patent US6610763B1, “Polymer composition, the production and further processing thereof into receptacles” (priority 1998, dated 2003).
